# Test results reported in patent US20070275382A1, “Biomarkers for the Efficacy of Somatostatin Analogue Treatment” (priority 2003, published 2007).
# *1 amine or outer side, *2 acyl side, *3 side chain or, on linkers, in order; H or OH if unused. Where a SMILES comes first, the peptide text is derived from it. Side-chain parts run from the residue outwards. [ ]: non-standard residue; d: D form. The star is where a group is joined. Ethylenediamine = C(CN[*:2])N[*:1]; Hyp = O=C(O)[CH]1C[CH](O)CN1; Phg = N[CH](C(=O)O)c1ccccc1; CO = O=C([*:1])[*:2]; Bn = c1ccc(C*)cc1
# Tested on: Kidney
# Assay: Microarray gene expression profiling (HG-U95A), kidney
# Assay type: in vivo, cynomolgus monkeys
# Experimental: Origin of tissue and processing. Male and female cynomolgus monkeys received subcutaneously pasireotide (100 μg/animal/day) or the vehicle for 14 days. On day 15, all animals were sacrificed and tissues for RNA extraction were immediately snap-frozen and kept at −80° C. until processing.
# RNA expression profiling was conducted by means of the HG-U95A gene expression probe array (Affymetrix; Santa Clara, Calif. USA), containing more than 12,600 probe sets interrogating primarily full-length human genes and also some control probe sets. The experiment was conducted according to the recommendations of the manufacturer. Briefly, total RNA was obtained by acid guanidinium thiocyanate-phenol-chloroform extraction (Trizol®, Invitrogen Life Technologies, San Diego, Calif. USA) from each frozen tissue section. The total RNA was then purified on an affinity resin (Rneasy®, Qiagen) and quantified. Double stranded cDNA was synthesized with a starting amount of approximately 5 μg full-length total RNA using the Superscript® Choice System (Invitrogen Life Technologies, Carlsbad, Calif. USA) in the presence of a T7-(dT)24 DNA oligonucleotide primer. Following synthesis, the cDNA was purified by phenol/chloroform/isoamyl alcohol extraction and ethanol precipitation. The purified cDNA was then transcribed in vitro using the BioArray® High Yield RNA Transcript Labeling Kit (ENZO, Farmingdale, N.Y. USA) in the presence of biotinylated ribonucleotides form biotin labelled cRNA. The labelled cRNA was then purified on an affinity resin (Rneasy®, Qiagen), quantified and fragmented. An amount of approximately 10 μg labelled cRNA was hybridized for 16 hours at 45° C. to an expression probe array. The array was then washed and stained twice with streptavidin-phycoerythrin (Molecular Probes,) using the GeneChip® Fluidics Workstation 400 (Affymetrix, Santa Clara, Calif. USA). The array was then scanned twice using a confocal laser scanner (GeneArray® Scanner, Agilent, Palo Alto, Calif. USA) resulting in one scanned image. This resulting “.dat-file” was processed using the MAS4 program (Affymetrix) into a “.cel-file”. The “.cel file” was captured and loaded into the Affymetrix GeneChip® Laboratory Information Management System (LIMS). The LIMS database is connected to a UNIX Sun Solaris server through a network filing system that allows for the average intensities for all probes cells (CEL file) to be downloaded into an Oracle database (NPGN). Raw data was converted to expression levels using a “target intensity” of 150. The data were evaluated for quality control and loaded in the GeneSpring® software 4.2.4 (Silicon Genetics, Calif. USA) for analysis.
# On the human Affymetrix HGU95Av2 chip, probe sets for individual genes contain 20 oligonucleotide pairs, each composed of a “perfect match” 25-mer and a “mismatch” 25-mer differing from the “perfect” match oligonucleotide at a single base. After probe labelling, hybridization, and laser scanning, the expression level was estimated by averaging the differences in signal intensity measured by oligonucleotide pairs of a given probe (AvgDiff value). The fold changes and directions were calculated for selected genes, from the differences of the AvgDiff values between controls and treated.
# To identify genes that were impacted by pasireotide, the dataset was initially filtered to exclude in a first wave of analysis, genes whose values were systematically in the lower expression ranges where the experimental noise is high (at least 80 in a number of experiments corresponding to the smallest number of replicas of any experimental point). In a second round of selection a threshold p-value of 0.05 (based on a t-test) identified differences between treated and control based on a two component error model (Global Error Model) and, whenever possible, with a stepdown correction for multi-hypothesis testing (Benjamini and Hochberg false discovery rate). […]
# [1] = ↑ increase, treated vs controls
# [2] = ↓ decrease, treated vs controls
compound,measurement,setting,value
"NCCCCC1NC(=O)C(Cc2c[nH]c3ccccc23)NC(=O)C(c2ccccc2)NC(=O)C2CC(OC(=O)NCCN)CN2C(=O)C(Cc2ccccc2)NC(=O)C(Cc2ccc(OCc3ccccc3)cc2)NC1=O (stereo not drawn) [Pasireotide, cyclo[4-(NH2—C2H4—NH—CO—O)Pro-Phg-DTrp-Lys-Tyr(4-Bzl)-Phe]] (cyclo(F[Hyp]([CO-Ethylenediamine])[Phg]WKY(Bn)); configuration not given here)","IGF-1 expression level, AvgDiff (range)",0.1 mg/animal/14day,25 (20 to 39)
same,"IGFBP2 expression level, AvgDiff (range)",0.1 mg/animal/14day,563 (457 to 655)
same,"IR expression level, AvgDiff (range)",0.1 mg/animal/14day,196 (163 to 265)
same,"SSTR2 expression level, AvgDiff (range)",0.1 mg/animal/14day,126 (93 to 158)
same,"SSTR3 expression level, AvgDiff (range)",0.1 mg/animal/14day,82 (33 to 120)
same,Adrenomedullin RNA expression fold change,[1],↑ x1.5
same,"Arginine vasopressin (neurophysin II, antidiuretic hormone, diabetes insipidus, neurohypophyseal) RNA expression fold change",[1],↑ x2
same,"CDC37 (cell division cycle 37, S. cerevisiae, homolog) RNA expression fold change",[1],homolog) ↑ x1.5
same,"CSF-1 receptor, formerly McDonough feline sarcoma viral (v-fms) oncogene homolog RNA expression fold change",[1],homolog ↑ x2.5
same,"Ca++ channel, voltage-dependent, α 1H subunit RNA expression fold change",[1],subunit ↑ x2
same,"Calcium/calmodulin-dependent protein kinase kinase 2, β RNA expression fold change",[1],↑ x1.5
same,"Cdk 5, regulatory subunit 2 (p39) RNA expression fold change",[1],↑ x1.5
same,"Cdki 1A (p21, Cip 1) RNA expression fold change",[1],Cip 1) ↑ x5
same,Corticotropin releasing hormone receptor type 2 beta isoform RNA expression fold change,[1],↑ x1.5
same,Dopamine receptor D2 RNA expression fold change,[1],↑ x4.5
same,Fas/Apo-1/CD95 RNA expression fold change,[1],↑ x1.5
same,"GABA (A) receptor, γ2 precursor RNA expression fold change",[1],precursor ↑ x2
same,GFR-bound protein 7 RNA expression fold change,[1],protein 7 ↑ x2
same,GFR-bound protein 14 RNA expression fold change,[1],protein 14 ↑ x2
same,Growth arrest-specific 6 RNA expression fold change,[1],specific 6 ↑ x1.5
same,IGFBP2 RNA expression fold change,[1],IGFBP2 ↑ x1.5
same,IL-7 R precursor RNA expression fold change,[1],↑ x2
same,IRF5 RNA expression fold change,[1],IRF5 ↑ x2
same,"K+ voltage-gated channel, Shaw-related subfamily, member 3 RNA expression fold change",[1],member 3 ↑ x2.5
same,LIF (cholinergic differentiation factor) RNA expression fold change,[1],factor) ↑ x2
same,Natriuretic peptide receptor A/guanylate cyclase A (atrionatriuretic peptide receptor A) RNA expression fold change,[1],A) ↑ x2
same,"Opioid receptor, δ1 RNA expression fold change",[1],δ1 ↑ x2.5
same,"PDGFR, α polypeptide RNA expression fold change",[1],polypeptide ↑ x1.5
same,Putative chemokine receptor; GTP-binding protein RNA expression fold change,[1],↑ x2
same,SSTR2 RNA expression fold change,[1],SSTR 2↑ x2
same,SSTR 3 RNA expression fold change,[1],SSTR 3↑ x3
same,Solute carrier family 9 (Na+/H+ exchanger) isoform 3 regulatory factor 1 RNA expression fold change,[1],↑ x2
same,"TGF, β1 RNA expression fold change",[1],"TGF, β 1 ↑ x1.5"
same,THR binding protein RNA expression fold change,[1],protein ↑x1.5
same,"THR, α (avian erythroblastic leukaemia viral (v-erb-a) oncogene homolog) RNA expression fold change",[1],homolog) ↑x1.5
same,"TNFR superfamily, member 12 RNA expression fold change",[1],↑ x2
same,VWF precursor RNA expression fold change,[1],precursor ↑ x2
same,"δ sleep inducing peptide, immunoreactor RNA expression fold change",[1],x2.5
same,Acetylserotonin O-methyl transferase-like RNA expression fold change,[2],↓ x3
same,Angiotensin receptor 1B RNA expression fold change,[2],1B ↓ x1.5
same,"Calmodulin 3 (phosphorrylase kinase, δ) RNA expression fold change",[2],↓ x1.5
same,Cdk (CDC2-like) RNA expression fold change,[2],↓ x2
same,Death effecter domain-containing RNA expression fold change,[2],↓ x3.5
same,Glucocorticoid receptor DNA binding factor 1 RNA expression fold change,[2],↓ x4.5
same,"Glutamate receptor, metabotropic 2 precursor RNA expression fold change",[2],precursor ↓ x3
same,IGF-1 RNA expression fold change,[2],IGF-1 ↓ x2.5
same,IGF-2 RNA expression fold change,[2],IGF-2 ↓ x2
same,Insulin receptor RNA expression fold change,[2],↓ x3
same,"Na+ channel, nonvoltage-gated 1, β (Liddle syndrome) RNA expression fold change",[2],syndrome) ↓ x2
same,PG-endoperoxide synthase 1 (prostaglandin G/H synthase and cyclooxygenase) RNA expression fold change,[2],↓ x3.5
same,"PI-3-kinase, catalytic, α polypeptide RNA expression fold change",[2],polypeptide ↓ x3
same,"PP 3 (formerly 2B), catalytic subunit, β isoform (calcineurin A β) RNA expression fold change",[2],A β) ↓ x2
same,"Solute carrier family 6 (neurotransmitter transporter, creatin), member 8 RNA expression fold change",[2],↓ x3
same,"THR-associated protein, 240kδ subunit RNA expression fold change",[2],subunit ↓ x1.5
same,"TNF, α-induced protein 3 RNA expression fold change",[2],↓ x1.5
same,Vasopressin-activated calcium-mobilizing receptor-1 RNA expression fold change,[2],receptor-1 ↓ x2
